Experimental data published in US8470766B2, “Protein kinase C therapy for the treatment of acute lung injury” (The Children's Hospital of Philadelphia, priority 2006, dated 2013).

Test system: neutrophils
Experiment: TNF suppression of neutrophil apoptosis, kinase inhibitor pretreatment (initial studies)
Type: cell-based
Settings: pretreatment with kinase inhibitor
From the text: δ-PKC has been identified as an important regulator of cytokine mediated anti-apoptotic and pro-inflammatory signaling in adherent neutrophils (Kilpatrick, L. E., et al. (2002) Am J Physiol Cell Physiol 283, C48-57; Kilpatrick, L. E., et al. (2004) Am J Physiol Cell Physiol 287, C633-42; Kilpatrick, L. E., et al. (2006) J Leukoc Biol. 80:1512-1521; Kilpatrick, L. E., et al. (2000) Am J Physiol Cell Physiol 279, C2011-8). Neutrophils undergo spontaneous apoptosis which can be suppressed in vitro by culturing cells in the presence of cytokines such as TNF (Kilpatrick, L. E., et al. (2002) Am J Physiol Cell Physiol 283, C48-57; Kilpatrick, L. E., et al. (2006) J Leukoc Biol. 80:1512-1521). […] Activation of caspases is one of the earliest markers of apoptosis occurring upstream of DNA fragmentation and PS externalization. Caspase 3 plays a critical role in spontaneous neutrophil apoptosis (Kilpatrick, L. E., et al. (2002) Am J Physiol Cell Physiol 283, C48-57; Daigle, I., Simon, H. U. (2001) Int Arch Allergy Immunol 126, 147-56; Scheel-Toellner, D., et al. (2004) Blood 104, 2557-64). […] However, recent reports have raised issues about the specificity of rottlerin as a δ-PKC inhibitor (Davies, S. P., et al. (2000) Biochem J 351, 95-105). To establish a role specifically for δ-PKC in the TNF-mediated anti-apoptotic signaling, a more specific inhibitor is required. […]

Q: For `CC(=O)c1c(O)c(C)c(O)c(Cc2c(O)c3c(c(C(=O)/C=C/c4ccccc4)c2O)OC(C)(C)C=C3)c1O` [rottlerin], which “suppression of neutrophil apoptosis by TNF” value is on record?
A: inhibited
